According to a melting point compilation (Tetko et al.; mined from patent text by program, amines drawn as free bases though some values may be those of a salt):

Compound `COc1ccc2[nH]c3cc(-c4ccccc4-c4ccccc4)c4c(c3c2c1)C(=O)NC4=O` has a melting point of 220 to 223 °C.
Work on `Nc1cc(F)c(N2CCNCC2)cc1Cl` yielded a melting point of 110 °C.
With `CNC(=S)C1=CC(C)(C(F)(F)F)Oc2ccc([N+](=O)[O-])cc21` (stereo unspecified) the melting point was 158 to 160 °C.
In the case of `CN1C(=O)C(Br)(Br)CC1c1cncc(Br)c1` (stereo unspecified), the melting point is reported as 139 to 140 °C.
In the case of `O=C(O)c1cc(-c2ccc(Br)cc2)c(=O)n(Cc2ccc(Cl)cc2Cl)c1`, the melting point is reported as 137 to 139 °C.
For `N#Cc1cc(-n2ccc(-c3ccc(F)cc3)n2)cc(S(N)(=O)=O)c1`, the melting point was 184 to 185 °C.
In the case of `O=C1C=C(CO)C(=O)N1`, the melting point is reported as 104 to 106 °C.
Work on `O=C(NCc1cocn1)c1ccnc(N2CCN(Cc3ccc(F)cc3)C2=O)c1` yielded a melting point of 197 to 199 °C.
With `CC(C)(C)OC(=O)C(C1NC(C(=O)O)C2(CCSCC2)S1)N1C(=O)c2ccccc2C1=O` (stereo unspecified) the melting point was 210 to 212 °C.
Compound `C(=C\c1nc2ccccc2n1-c1ccccn1)/c1cccs1` has a melting point of 130 to 131 °C.
`O=C1CNC(c2cccc(Cl)c2)=NN1` gave a melting point of 228 to 230 °C.
For `CC(=O)c1cc(F)ccc1Oc1nc2ccc(Br)cc2cc1Cc1ccccc1`, the melting point was 115 to 117 °C.
Work on `Fc1ccc(CC(c2ccccc2)C(F)(F)F)cc1` (stereo unspecified) yielded a melting point of 143 to 145 °C.
`CCCOC(C)c1ccc(-c2ccc(C(=O)O)cc2)cc1` (single isomer, unassigned; (+)) showed a melting point of 172 °C.
In the case of `COC(=O)COc1c(C)cc(SCc2ccc(-c3ccc(C(F)(F)F)cn3)cc2)c2c1CCCO2`, the melting point is reported as 156 to 157 °C.
`CCCNc1ncnc2c1ncn2CCCN1CCC(COc2ccccc2)CC1` showed a melting point of 62 to 63 °C.
`CN(C(=O)[C@H]1CC[C@@H](c2ccccc2)N1C(=O)OC(C)(C)C)c1ccccc1` (racemic) gave a melting point of 132 °C.
For `O=[N+]([O-])N=C1NCCCN1Cc1ccc(Cl)nc1`, the melting point was 113 to 117 °C.
Work on `COc1cc2c(c3c1OC(C)(C)C3)C(c1cccc(-c3ccccc3)c1)=NC(C)(C)C2` yielded a melting point of 141 to 142 °C.
`CC(=O)OCc1cn(C)c2ccccc2c1=O` gave a melting point of 142 to 146 °C.
`O=C(O)c1ccc2c(c1)S(=O)(=O)c1ccccc1C=C2` gave a melting point of 268 to 270 °C.
Compound `COc1cccc2c(Cl)nc(C)nc12` has a melting point of 101 to 102 °C.
With `Cc1cc(N)c(C(=O)O)cc1F` the melting point was 201 to 202 °C.
`N[C@@H](CCC(=O)O)C(=O)N[C@@H](Cc1ccccc1)C(=O)O` showed a melting point of 147 to 149 °C.
For `CCNc1nc(-c2ccc(NC(=O)OCc3cccnc3)cc2)ccc1C(=O)NC`, the melting point was 234 to 235 °C.
In the case of `COc1cnc2sc(SCc3ccccc3)nn2c1=O`, the melting point is reported as 145 to 147 °C.
Compound `N#Cc1cc2ccc(OCC3CO3)cc2o1` (stereo unspecified) has a melting point of 90 to 92 °C.
`Cc1ccnc(SCc2nc3ccc(CC(=O)O)cc3[nH]2)c1` gave a melting point of 121 to 124 °C.
Compound `CC(C)(Cl)c1cc(C(C)(C)Cl)cc(C(C)(C)Cl)c1` has a melting point of 64 °C.
`CCOC(=O)c1c(O)c(Br)c(Br)n1-c1ccccc1` gave a melting point of 144 to 145 °C.
`COC(=O)c1nn(-c2ccccc2F)cc(OC)c1=O` gave a melting point of 155 to 157 °C.
With `O=C(O)c1ccc(C(c2ccccc2)(C(F)(F)F)C(F)(F)F)cc1` the melting point was 153 to 155 °C.
Work on `C=CC1CCC2C3CC(=O)C4=CC(=O)CCC4(C)C3CCC12C` (stereo unspecified) yielded a melting point of 114 to 120 °C.
For `COc1ccc(-c2c(CC(=O)O)c(-c3ccccc3)nn2-c2ccccc2)cc1`, the melting point was 160 to 163 °C.
In the case of `COc1ccc(N2CCOCC2)c2sc(-c3ncc(-c4sc5ccccc5c4C)[nH]3)nc12`, the melting point is reported as 213 to 215 °C.
Compound `CN(C)Cc1cc(Nc2nncc3ccccc23)cc(CN(C)C)c1O` has a melting point of 195 °C.
With `Cc1cc(C)c(C)c(C(=O)CCl)c1C` the melting point was 65.5 °C.
Work on `CCCCCCCCCCOc1ccc(-c2ccc(OCc3ccccc3)c(F)c2)cc1F` yielded a melting point of 95.8 to 98.6 °C.
Work on `CC(=O)N[C@H]1CC[C@H](CCN2CCN(c3nc(C)cc4c3CCO4)CC2)CC1` yielded a melting point of 218 °C.
For `COc1ccccc1NC(=O)C1=C(O)c2ccc3ccccc3c2S(=O)(=O)N1C`, the melting point was 198 to 200 °C.
In the case of `NNC1=Nc2ccc(C(F)(F)F)cc2C(c2ccccc2)=NC1`, the melting point is reported as 127 °C.
Compound `CNC(=O)N1CCN(C(=O)CN2CCCC2=O)CC1` has a melting point of 203 to 205 °C.
`CN(Cc1ccc(NC(=O)C2=Cc3cc(Br)ccc3N(C3CC3)CC2)cc1)C1CCOCC1` showed a melting point of 133 to 136 °C.
Compound `CC(C)NCCNc1nc(Nc2cccc(NS(C)(=O)=O)c2)nc2[nH]ccc12` has a melting point of 127 to 131 °C.
With `CN1C(=O)Cc2c(sc3ccccc23)S1(=O)=O` the melting point was 175 to 178 °C.
`NCCCP(=O)(O)Cc1ccccc1` showed a melting point of 69 to 72 °C.
With `O=C(Nc1ccc2c(c1)OC(F)(F)O2)NC12CC3CC(CC(C3)C1)C2` the melting point was 213 to 215 °C.
With `CN1CCN(c2ccc(Nc3ncc4ccc(Sc5ccccc5)n4n3)cc2)CC1` the melting point was 155 to 157 °C.
`CCC1CC2C3CCC(C(C)CC(C)C(=O)O)C3(C)CCC2C2(C)CCC(O)CC12` (stereo unspecified) showed a melting point of 138 °C.
`OCCC(O)OCn1cc(Cl)c2c(Cl)ncnc21` (stereo unspecified) gave a melting point of 142 to 143 °C.
`O=C(/C=C/[C@H]1CC[C@@H]2OC(=O)C[C@@H]21)COc1ccccc1` showed a melting point of 91 °C.
